Tests used:
Assay in all cases: Post-emergence herbicidal glasshouse test, percentage damage to the plant
Assay type in all cases: in vivo
Conditions in all cases: post-emergence, 1000 g/ha, evaluated after 13 days
[1] = test system: Solanum nigrum (SOLNI)
Experimental: (§1) Seeds of a variety of test species are sown in standard soil in pots:—Solanum nigrum (SOLNI), Amaranthus retoflexus (AMARE), Setaria faberi (SETFA), Alopecurus myosuroides (ALOMY), Echinochloa crus-galli (ECHCG), Ipomoea hederacea (IPOHE). After 8 days cultivation (post-emergence) under controlled conditions in a glasshouse (at 24/16° C., day/night; 14 hours light; 65% humidity), the plants are sprayed with an aqueous spray solution derived from the formulation of the technical active ingredient in acetone/water (50:50) solution containing 0.5% Tween 20 (polyoxyethelyene sorbitan monolaurate, CAS RN 9005-64-5). Compounds are applied at 1000 g/ha. The test plants are then grown in a glasshouse under controlled conditions in a glasshouse (at 24/16° C., day/night; 14 hours light; 65% humidity) and watered twice daily. After 13 days, the test is evaluated for the percentage damage caused to the plant. The biological activities are shown in the following table on a five point scale (5=80-100%; 4=60-79%; 3=40-59%; 2=20-39%; 1=0-19%). A comparative experiment is conducted to compare the biological efficacy of a compound of the present invention with those of WO 2011/045271. The test is performed as outlined above using the following compounds. Three different application rates are employed (250 g/ha, 500 g/ha and 1000 g/ha).

[2] = test system: Setaria faberi (SETFA)
Experimental: as §1

[3] = test system: Echinochloa crus-galli (ECHCG)
Experimental: as §1

[4] = test system: Amaranthus retoflexus (AMARE)
Experimental: as §1

[5] = test system: Alopecurus myosuroides (ALOMY)
Experimental: as §1

[6] = test system: Ipomoea hederacea (IPOHE)
Experimental: as §1

| Structure (SMILES) | POST Application SOLNI, percentage damage (five point scale) [1] | POST Application SETFA, percentage damage (five point scale) [2] | POST Application ECHCG, percentage damage (five point scale) [3] | POST Application AMARE, percentage damage (five point scale) [4] | POST Application ALOMY, percentage damage (five point scale) [5] | POST Application IPOHE, percentage damage (five point scale) [6] |
| --- | --- | --- | --- | --- | --- | --- |
| C=C(C)C1=NN(C)C(=O)C(n2c(Cl)c(Cl)c3ccccc32)C1=O (stereo not drawn) [Compound 2.016] | 4 (4=60-79%) | 1 (1=0-19%) | 1 (1=0-19%) | 4 (4=60-79%) | 1 (1=0-19%) | 2 (2=20-39%) |
| CCSC1=NN(C)C(=O)C(n2c(Cl)c(Cl)c3ccccc32)C1=O (stereo not drawn) [Compound 2.017] | 3 (3=40-59%) | 1 (1=0-19%) | 2 (2=20-39%) | 4 (4=60-79%) | 1 (1=0-19%) | 1 (1=0-19%) |
| CCCOC1=NN(C)C(=O)C(n2c(Cl)c(Cl)c3ccccc32)C1=O (stereo not drawn) [Compound 2.018] | 4 (4=60-79%) | 1 (1=0-19%) | 1 (1=0-19%) | 3 (3=40-59%) | 1 (1=0-19%) | 4 (4=60-79%) |
| CC(C)COC1=NN(C)C(=O)C(n2c(Cl)c(Cl)c3ccccc32)C1=O (stereo not drawn) [Compound 2.019] | 4 (4=60-79%) | 1 (1=0-19%) | 1 (1=0-19%) | 4 (4=60-79%) | 1 (1=0-19%) | 2 (2=20-39%) |
| CN1N=C(OCC(F)F)C(=O)C(n2c(Cl)c(Cl)c3ccccc32)C1=O (stereo not drawn) [Compound 2.020] | 4 (4=60-79%) | 1 (1=0-19%) | 1 (1=0-19%) | 4 (4=60-79%) | 1 (1=0-19%) | 3 (3=40-59%) |
| CN(C)C1=NN(C)C(=O)C(n2c(Cl)c(Cl)c3ccccc32)C1=O (stereo not drawn) [Compound 2.021] | 4 (4=60-79%) | 1 (1=0-19%) | 1 (1=0-19%) | 3 (3=40-59%) | 2 (2=20-39%) | 3 (3=40-59%) |
| COC1=NN(C)C(=O)C(n2c(Cl)c(Cl)c3ccccc32)C1=O (stereo not drawn) [Compound 2.022] | 5 (5=80-100%) | 1 (1=0-19%) | 1 (1=0-19%) | 4 (4=60-79%) | 1 (1=0-19%) | 5 (5=80-100%) |
| CCOC1=NN(C)C(=O)C(n2c(Cl)c(Cl)c3ccccc32)C1=O (stereo not drawn) [Compound 2.023] | 4 (4=60-79%) | 1 (1=0-19%) | 1 (1=0-19%) | 2 (2=20-39%) | 1 (1=0-19%) | 4 (4=60-79%) |
| CN1N=C(OCC(F)(F)F)C(=O)C(n2c(Cl)c(Cl)c3ccccc32)C1=O (stereo not drawn) [Compound 2.024] | 2 (2=20-39%) | 1 (1=0-19%) | 1 (1=0-19%) | 2 (2=20-39%) | 1 (1=0-19%) | 1 (1=0-19%) |
| C=CCC1=NN(C)C(=O)C(n2c(Cl)c(Cl)c3ccccc32)C1=O (stereo not drawn) [Compound 2.025] | 5 (5=80-100%) | 2 (2=20-39%) | 2 (2=20-39%) | 2 (2=20-39%) | 1 (1=0-19%) | 5 (5=80-100%) |
